Experimental data: PubChem BioAssay (NCI)
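Exposure lasted 48 hours, with cells grown in 96-well plates and compounds tested at five concentrations. GI50 is the concentration that inhibits growth by half. TGI is the concentration that stops growth completely.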

Key:
Assay in all cases: DTP human tumour cell line panel, 48 h
U251 CNS = system: U251 CNS
CCRF-CEM leukemia = system: CCRF-CEM leukemia
ACHN renal = system: ACHN renal
LOX IMVI melanoma = system: LOX IMVI melanoma
HCT-15 colon = system: HCT-15 colon
NCI-H23 lung = system: NCI-H23 lung
SN12C renal = system: SN12C renal
MOLT-4 leukemia = system: MOLT-4 leukemia
UO-31 renal = system: UO-31 renal
T-47D breast = system: T-47D breast

| Compound | GI50 (U251 CNS) [µM] | TGI (U251 CNS) [µM] | GI50 (CCRF-CEM leukemia) [µM] | TGI (CCRF-CEM leukemia) [µM] | GI50 (ACHN renal) [µM] | TGI (ACHN renal) [µM] | GI50 (LOX IMVI melanoma) [µM] | TGI (LOX IMVI melanoma) [µM] | GI50 (HCT-15 colon) [µM] | TGI (HCT-15 colon) [µM] | GI50 (NCI-H23 lung) [µM] | TGI (NCI-H23 lung) [µM] | GI50 (SN12C renal) [µM] | TGI (SN12C renal) [µM] | GI50 (MOLT-4 leukemia) [µM] | TGI (MOLT-4 leukemia) [µM] | GI50 (UO-31 renal) [µM] | TGI (UO-31 renal) [µM] | GI50 (T-47D breast) [µM] | TGI (T-47D breast) [µM] |
| --- | --- | --- | --- | --- | --- | --- | --- | --- | --- | --- | --- | --- | --- | --- | --- | --- | --- | --- | --- | --- |
| CCCCCCCCCN=C(N)c1ccc(N2CCN(c3ccc(C(N)=NCCCCCCCCC)cc3)CC2)cc1 | 0.518 | 1.41 | 1.77 | 8.34 | 2.19 | 12.7 | 2.1 | 10.7 | 2.05 | 13.5 | 1.67 | 6.37 | 1.52 | 7.85 | 1.58 | > 50 | 3.5 | > 50 | 2.44 | 11.8 |
| COc1cc(-c2oc3c(OC)c(O)c(OC)c(O)c3c(=O)c2OC)cc(OC)c1OC | – | > 100 | – | > 100 | – | > 100 | – | > 100 | – | > 100 | – | > 100 | – | > 100 | – | > 100 | – | > 100 | – | > 100 |
| CC(=O)OC1C(O)C(C)OC(OC2C(OC(=O)C3CCC4C(C3)OC3(CC(OC(=O)/C=C/c5ccccc5)C(C)CO3)C43CO3)OC(C)C(O)C2OC(C)=O)C1O (stereo not given) | – | 0.0493 | – | 0.084 | – | 0.648 | – | 0.0213 | – | 1.82 | – | 0.0615 | – | 0.125 | – | 0.032 | – | 1.6 | – | 0.0441 |
| COc1cc2c(Nc3ccc(-c4ccc(N)cc4)cc3)ncnc2c(OC)c1OC | 7.93 | > 100 | 6.09 | > 100 | 1.76 | > 100 | 0.438 | > 100 | 0.607 | > 85.7 | 19.5 | > 100 | 11.2 | > 100 | 4.05 | > 100 | 2.07 | > 76.5 | 5.13 | 86.7 |
| COc1cc(/C=C2\CCC/C(=C\c3cc(CN4CCCC4)c(O)c(OC)c3)C2=O)cc(CN2CCCC2)c1O | 3.03 | 11.2 | 2.71 | 8.37 | 1.71 | 3.43 | 1.74 | 3.36 | 2.34 | 7.87 | 4.81 | 19.8 | 4.89 | 21.2 | 2.43 | 8.98 | 10.1 | 21.7 | 7.97 | 22.3 |
| Cc1nc2ccc(-n3ncc(C(=O)c4cc5ccccc5[nH]4)c3N)cc2[nH]1 | 1.44 | > 100 | 9.24 | 96 | 5.73 | > 100 | 2.57 | 15.2 | 0.884 | 36.6 | 15.9 | > 100 | 12.7 | > 100 | 5.99 | 56.1 | 10 | 33.2 | 6.74 | 45.2 |
| Cc1[nH]c(C(=O)Nc2cccc(OC3CCNCC3)c2)c(Cl)c1Cl | 1.93 | 4.19 | 1.92 | 4.26 | 1.75 | 3.17 | 1.66 | 3.16 | 1.73 | 3.36 | 2.14 | 5.54 | 2.8 | 10.1 | 1.94 | 4.12 | 1.52 | 2.94 | 1.96 | 4.52 |
| Cc1ccc(C2=NN(c3ccc(S(=O)(=O)NC(=O)NCc4ccccc4)cc3)C(c3ccc(N(C)C)cc3)C2)c(C)c1 (stereo not given) | 3.53 | 16 | 3.2 | 89 | 3.97 | > 100 | 4.08 | 14.1 | 3.27 | > 100 | 3.6 | 17.8 | 3.35 | 61.5 | 3.65 | 73.8 | 4.27 | 15.7 | 6.74 | > 100 |
| c1cc[n+](Cc2c3ccccc3cc3c2ccc2ccccc23)cc1 | 1.1 | 6.37 | 4.73 | 24 | > 100 | > 100 | 3.72 | 15.8 | > 100 | > 100 | 1.71 | 11.6 | 0.506 | 4.73 | 3.26 | 14.7 | 27.5 | > 100 | 2.34 | 7.92 |
| COc1ccc2c(c1)OCC1c3cc(OC)c4ccccc4c3OC21 (stereo not given) | 9.95 | 67 | 16.2 | > 100 | 27.4 | > 100 | 16.5 | > 100 | 6.06 | > 100 | 4.88 | 43.2 | 17.1 | 77.4 | 9.82 | > 100 | 22.2 | > 100 | 13.7 | 47 |
| CCc1ccc(Oc2c(-c3ccc(OCCc4cccc(C(F)(F)F)c4)cc3O)n[nH]c2C(F)(F)F)cc1 | 1.81 | 6.44 | 2.55 | 9.18 | 2.18 | 7.66 | 1.94 | 6.89 | 1.96 | 6.89 | 1.53 | 5.89 | 2.4 | 8.35 | 1.84 | 7.05 | 2.07 | 8.08 | 1.43 | 4.95 |
| NS(=O)(=O)c1ccc(N=Nc2c(O)[nH]c3ccc(C(=O)NCCCn4ccnc4)cc23)cc1 | > 25 | > 25 | > 18.5 | > 25 | > 25 | > 25 | > 25 | > 25 | > 25 | > 25 | > 25 | > 25 | > 25 | > 25 | > 25 | > 25 | > 25 | > 25 | > 25 | > 25 |
| COc1ccc(-c2cc(=O)c3c(OC)c4ccoc4c(/C=C/C=O)c3o2)cc1 | 2.53 | 10.3 | 1.09 | > 100 | 19.3 | > 100 | 1.08 | 2.34 | 1.73 | 5.92 | 2.8 | 13 | 2.32 | 59.5 | 1.84 | 5.97 | 3.17 | 19.5 | 2.03 | > 100 |
